Measured values from publication PMC12217109, “Development of novel benzamide class I selective lysine deacetylase inhibitors as potent anticancer agents” (Journal of Enzyme Inhibition and Medicinal Chemistry, 2025).

Tests used:
HeLa nuclear KDACs = assay: Fluor-de-Lys HDAC fluorometric activity assay with HeLa nuclear extract; assay type: biochemical; conditions: for IC50: HeLa nuclear extract, up to 20 µM, read-out: HDAC Inhibition IC50; for IC20: concentration inhibiting HDAC activity by 20%, read-out: HDAC Inhibition IC20
Description: Total zinc-dependent KDAC (classes I, II and IV) activity was measured using the Fluor-de-Lys^TM HDAC fluorometric activity assay kit (BioMol, Exeter, UK), as per manufacturers protocol. Briefly, HeLa nuclear extract, potential inhibitor (5 nM–20 μM) and assay buffer were incubated in a 96-well fluorometric plate at 37 °C for 15 min. Acetylated substrate (100 μM) was added and the mixture incubated at 37 °C for a further 20 min. The developer was added and the mixture incubated at 37 °C for a further 15 min. Fluorescence was measured using a microplate reader (λex = 360 nm, λem = 460 nm). Percentage KDAC activity and thus KDAC inhibition was determined by quantification of fluorescence obtained in the presence versus absence of the respective inhibitor.

SF-295 = assay: NCI-60 cytotoxicity screen; assay type: cell-based; conditions: Homo sapiens, NCI-60, 48 h, CNS
From the text: (§1) Compounds 3–7 were submitted to the US National Cancer Institute (NIH, Bethesda, Maryland) for screening against the NCI-60 panel of human cancer cell lines, as per standard protocol.

MCF-7 = assay: NCI-60 cytotoxicity screen; assay type: cell-based; conditions: Homo sapiens, MCF7; NCI-60, 48 h, breast
From the text: as §1

SR = assay: NCI-60 cytotoxicity screen; assay type: cell-based; conditions: Homo sapiens, NCI-60, 48 h, leukaemia
From the text: as §1

SK-MEL-2 = assay: NCI-60 cytotoxicity screen; assay type: cell-based; conditions: Homo sapiens, NCI-60, 48 h, melanoma
From the text: as §1

SK-MEL-5 = assay: NCI-60 cytotoxicity screen; assay type: cell-based; conditions: Homo sapiens, NCI-60, 48 h, melanoma
From the text: as §1

SNB-75 = assay: NCI-60 cytotoxicity screen; assay type: cell-based; conditions: Homo sapiens, NCI-60, 48 h, CNS
From the text: as §1

U251 = assay: NCI-60 cytotoxicity screen; assay type: cell-based; conditions: Homo sapiens, U-251; NCI-60, 48 h, CNS
From the text: as §1

786-0 = assay: NCI-60 cytotoxicity screen; assay type: cell-based; conditions: Homo sapiens, NCI-60, 48 h, renal
From the text: as §1

UO-31 = assay: NCI-60 cytotoxicity screen; assay type: cell-based; conditions: Homo sapiens, NCI-60, 48 h, renal
From the text: as §1

LOX IMVI = assay: NCI-60 cytotoxicity screen; assay type: cell-based; conditions: Homo sapiens, NCI-60, 48 h, melanoma
From the text: as §1

MDA-MB-435 = assay: NCI-60 cytotoxicity screen; assay type: cell-based; conditions: Homo sapiens, NCI-60, 48 h, melanoma
From the text: as §1

SW620 = assay: NCI-60 cytotoxicity screen; assay type: cell-based; conditions: Homo sapiens, SW-620; NCI-60, 48 h, colon
From the text: as §1

HCT15 = assay: NCI-60 cytotoxicity screen; assay type: cell-based; conditions: Homo sapiens, HCT-15; NCI-60, 48 h, colon
From the text: as §1

PC-3 = assay: NCI-60 cytotoxicity screen; assay type: cell-based; conditions: Homo sapiens, NCI-60, 48 h, prostate
From the text: as §1

SF-268 = assay: NCI-60 cytotoxicity screen; assay type: cell-based; conditions: Homo sapiens, NCI-60, 48 h, CNS
From the text: as §1

HS 578 T = assay: NCI-60 cytotoxicity screen; assay type: cell-based; conditions: Homo sapiens, NCI-60, 48 h, breast
From the text: as §1

UACC-62 = assay: NCI-60 cytotoxicity screen; assay type: cell-based; conditions: Homo sapiens, NCI-60, 48 h, melanoma
From the text: as §1

KM12 = assay: NCI-60 cytotoxicity screen; assay type: cell-based; conditions: Homo sapiens, NCI-60, 48 h, colon
From the text: as §1

A549 = assay: NCI-60 cytotoxicity screen; assay type: cell-based; conditions: Homo sapiens, NCI-60, 48 h, NSCLC
From the text: as §1

SK-MEL-28 = assay: NCI-60 cytotoxicity screen; assay type: cell-based; conditions: Homo sapiens, NCI-60, 48 h, melanoma
From the text: as §1

HOP-62 = assay: NCI-60 cytotoxicity screen; assay type: cell-based; conditions: Homo sapiens, NCI-60, 48 h, NSCLC
From the text: as §1

IGROV-1 = assay: NCI-60 cytotoxicity screen; assay type: cell-based; conditions: Homo sapiens, NCI-60, 48 h, ovarian
From the text: as §1

M14 = assay: NCI-60 cytotoxicity screen; assay type: cell-based; conditions: Homo sapiens, NCI-60, 48 h, melanoma
From the text: as §1

RPMI-8226 = assay: NCI-60 cytotoxicity screen; assay type: cell-based; conditions: Homo sapiens, NCI-60, 48 h, leukaemia
From the text: as §1

OVCAR-8 = assay: NCI-60 cytotoxicity screen; assay type: cell-based; conditions: Homo sapiens, NCI-60, 48 h, ovarian
From the text: as §1

ACHN = assay: NCI-60 cytotoxicity screen; assay type: cell-based; conditions: Homo sapiens, NCI-60, 48 h, renal
From the text: as §1

COLO205 = assay: NCI-60 cytotoxicity screen; assay type: cell-based; conditions: Homo sapiens, COLO 205; NCI-60, 48 h, colon
From the text: as §1

HL-60 = assay: NCI-60 cytotoxicity screen; assay type: cell-based; conditions: Homo sapiens, NCI-60, 48 h, leukaemia
From the text: as §1

SF-539 = assay: NCI-60 cytotoxicity screen; assay type: cell-based; conditions: Homo sapiens, NCI-60, 48 h, CNS
From the text: as §1

CAKI-1 = assay: NCI-60 cytotoxicity screen; assay type: cell-based; conditions: Homo sapiens, NCI-60, 48 h, renal
From the text: as §1

EKVX = assay: NCI-60 cytotoxicity screen; assay type: cell-based; conditions: Homo sapiens, NCI-60, 48 h, NSCLC
From the text: as §1

HCT116 = assay: NCI-60 cytotoxicity screen; assay type: cell-based; conditions: Homo sapiens, HCT-116; NCI-60, 48 h, colon
From the text: as §1

H460 = assay: NCI-60 cytotoxicity screen; assay type: cell-based; conditions: Homo sapiens, NCI-60, 48 h, NSCLC
From the text: as §1

SN12C = assay: NCI-60 cytotoxicity screen; assay type: cell-based; conditions: Homo sapiens, NCI-60, 48 h, renal
From the text: as §1

H522 = assay: NCI-60 cytotoxicity screen; assay type: cell-based; conditions: Homo sapiens, NCI-60, 48 h, NSCLC
From the text: as §1

OVCAR-4 = assay: NCI-60 cytotoxicity screen; assay type: cell-based; conditions: Homo sapiens, NCI-60, 48 h, ovarian
From the text: as §1

RXF 393 = assay: NCI-60 cytotoxicity screen; assay type: cell-based; conditions: Homo sapiens, NCI-60, 48 h, renal
From the text: as §1

OVCAR-3 = assay: NCI-60 cytotoxicity screen; assay type: cell-based; conditions: Homo sapiens, NCI-60, 48 h, ovarian
From the text: as §1

NCI/ADR-RES = assay: NCI-60 cytotoxicity screen; assay type: cell-based; conditions: Homo sapiens, NCI-60, 48 h, ovarian
From the text: as §1

BT 549 = assay: NCI-60 cytotoxicity screen; assay type: cell-based; conditions: Homo sapiens, NCI-60, 48 h, breast
From the text: as §1

H23 = assay: NCI-60 cytotoxicity screen; assay type: cell-based; conditions: Homo sapiens, NCI-60, 48 h, NSCLC
From the text: as §1

DU-145 = assay: NCI-60 cytotoxicity screen; assay type: cell-based; conditions: Homo sapiens, NCI-60, 48 h, prostate
From the text: as §1

SNB-19 = assay: NCI-60 cytotoxicity screen; assay type: cell-based; conditions: Homo sapiens, NCI-60, 48 h, CNS
From the text: as §1

C=C(CN1CCN(c2ccccn2)CC1)c1ccc(C(=O)Nc2ccccc2N)cc1 [Compound 6, N-(2-aminophenyl)-4–(3-(4-(pyridin-2-yl)piperazin-1-yl)prop-1-en-2-yl)benzamide]
IC50 (HeLa nuclear KDACs): > 20000 nM | IC20 (HeLa nuclear KDACs): > 10000 nM | IC50 (SF-295): 1390 nM | IC50 (MCF-7): 3160 nM | IC50 (SR): 5330 nM | IC50 (SK-MEL-2): 1870 nM | IC50 (SK-MEL-5): 730 nM | IC50 (SNB-75): 1480 nM | IC50 (U251): 1480 nM | IC50 (786-0): 1210 nM | IC50 (UO-31): 1800 nM | IC50 (LOX IMVI): 930 nM | IC50 (MDA-MB-435): 530 nM | IC50 (SW620): 1710 nM | IC50 (HCT15): 1910 nM | IC50 (PC-3): 3780 nM | IC50 (SF-268): 1660 nM | IC50 (HS 578 T): 1110 nM | IC50 (UACC-62): 1410 nM | IC50 (KM12): 940 nM | IC50 (A549): 2390 nM | IC50 (SK-MEL-28): 2520 nM | IC50 (HOP-62): 1320 nM | IC50 (IGROV-1): 1570 nM | IC50 (M14): 8470 nM | IC50 (RPMI-8226): 1600 nM | IC50 (OVCAR-8): 1500 nM | IC50 (ACHN): 1500 nM | IC50 (COLO205): 1710 nM | IC50 (HL-60): 2190 nM | IC50 (SF-539): 1500 nM | IC50 (CAKI-1): 1190 nM | IC50 (EKVX): 5330 nM | IC50 (HCT116): 2500 nM | IC50 (H460): 2810 nM | IC50 (SN12C): 2360 nM | IC50 (H522): 1560 nM | IC50 (OVCAR-4): 6350 nM | IC50 (RXF 393): 1550 nM | IC50 (OVCAR-3): 1240 nM | IC50 (NCI/ADR-RES): 1310 nM | IC50 (BT 549): 3940 nM | IC50 (H23): 940 nM | IC50 (DU-145): 2520 nM | IC50 (SNB-19): 4860 nM

C=C(CN1CCN(c2cccc(C(F)(F)F)n2)CC1)c1ccc(C(=O)Nc2ccccc2N)cc1 [Compound 7, N-(2-aminophenyl)-4–(3-(4–(6-(trifluoromethyl)pyridin-2-yl)piperazin-1-yl)prop-1-en-2-yl)benzamide]
IC50 (HeLa nuclear KDACs): > 20000 nM | IC20 (HeLa nuclear KDACs): 800 ± 200 nM | IC50 (SF-295): 390 nM | IC50 (MCF-7): 350 nM | IC50 (SR): 280 nM | IC50 (SK-MEL-2): 5650 nM | IC50 (SK-MEL-5): 400 nM | IC50 (SNB-75): 670 nM | IC50 (U251): 1160 nM | IC50 (786-0): 1970 nM | IC50 (UO-31): 2750 nM | IC50 (LOX IMVI): 1490 nM | IC50 (MDA-MB-435): 270 nM | IC50 (SW620): 530 nM | IC50 (HCT15): 920 nM | IC50 (PC-3): 420 nM | IC50 (SF-268): 1120 nM | IC50 (HS 578 T): 450 nM | IC50 (UACC-62): 970 nM | IC50 (KM12): 670 nM | IC50 (A549): 3320 nM | IC50 (SK-MEL-28): 2080 nM | IC50 (HOP-62): 2210 nM | IC50 (IGROV-1): 2010 nM | IC50 (M14): 970 nM | IC50 (RPMI-8226): 530 nM | IC50 (OVCAR-8): 4250 nM | IC50 (ACHN): 8390 nM | IC50 (COLO205): 3330 nM | IC50 (HL-60): 320 nM | IC50 (SF-539): 980 nM | IC50 (CAKI-1): 510 nM | IC50 (EKVX): 24300 nM | IC50 (HCT116): 540 nM | IC50 (H460): 640 nM | IC50 (SN12C): 3790 nM | IC50 (H522): 1110 nM | IC50 (OVCAR-4): 8360 nM | IC50 (RXF 393): 670 nM | IC50 (OVCAR-3): 260 nM | IC50 (NCI/ADR-RES): 640 nM | IC50 (BT 549): 920 nM | IC50 (H23): 14100 nM | IC50 (DU-145): 1450 nM | IC50 (SNB-19): 650 nM
